Data on 91 compounds can be found in PubChem BioAssay AID732 (Emory University Molecular Libraries Screening Center, 2007).

“And” between values parts separate entries of the source, which are not always exact repeats. Equal values may be shown once. The source made the active and inactive calls. The rule behind the calls is not given here. Peptide text beside a SMILES is read from it. * marks the point of attachment. Cbz = O=C(OCc1ccccc1)*

The subject of this assay is in vivo angiogenesis, blood vessel count. Nature of the assay: reduction of blood vessel formation in vivo – HTS, in vivo study (AID 732).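 Note: zebrafish embryos dosed at one day post fertilization; 0% = reference inhibitor and 100% = plate mean.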 Particulars: hits give low values;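 tested at 30 µM in the well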.
As for `COc1cc2nc(N3CCN(C(=O)c4ccco4)CC3)nc(N)c2cc1OC`, the vessel count % control was 107% (inactive). For `CNCCc1ccc(O)c(O)c1`, the vessel count % control is 96.5% (inactive). For `Oc1[nH]c2ccccc2c1C1=Nc2ccc(Br)cc2/C1=N\OCCN1CCCC1` the value was 91.2% (inactive) and 74% (inactive); for `NCCSSCCN`, 118% (inactive); for `Clc1ccc(C(c2ccc(Cl)cc2)n2cc[n+](CC(OCc3ccc(Cl)cc3Cl)c3ccc(Cl)cc3Cl)c2)cc1` (stereo unspecified), 0% (inactive).

As to `NC(N)=N[C@@H](CCC(=O)O)C(=O)O`, the vessel count % control is 99.2% (inactive). For `OCC1NCC(O)C(O)C1O` (stereo unspecified) the value was 97.9% (inactive); for `CC(=O)NCCc1ccc(O)c(O)c1`, 105% (inactive); for `CNC(=O)c1cc2c(cn1)[nH]c1ccccc12`, 101% (inactive).

As to `NC1(C(=O)O)CC1`, the vessel count % control was 127% (inactive). For `Fc1ccc([C@@H]2CCNC[C@H]2COc2ccc3c(c2)OCO3)cc1` the value was 138% (inactive); for `COc1cc2c(cc1C(F)(F)F)N(C(=O)Nc1cc(F)cc(-c3cccnc3)c1)CC2`, 95.3% (inactive). In the case of `CC1(NCC(O)COc2cccc3[nH]ccc23)CCC(C(C)(C)NC(=O)CBr)CC1` (stereo unspecified) it was 124% (inactive).

For `CN1CCN(C2Cc3ccccc3Sc3ccc(Cl)cc32)CC1` (stereo unspecified), the vessel count % control is 120% (inactive). In the case of `CCCCCCCCCCCCCCCC(=O)NCCO` it was 96.1% (inactive); in that of `C[N+](C)(C)CC#CCN1CCCC1=O`, 99.6% (inactive). Regarding `Cc1cc(C)c(/C=C2\C(=O)Nc3ccccc32)[nH]1`, the vessel count % control is 0% (inactive). For `CC(C)Cn1c(=O)n(C)c(=O)c2[nH]cnc21` the value was 78.7% (inactive); for `CCC1(c2ccccc2)C(=O)NCNC1=O`, 91.4% (inactive); for `CCn1ccnc1CC1COc2ccccc2O1` (stereo unspecified), 100% (inactive).

Turning to `CCN(CC)c1ncnc2c1ncn2[C@@H]1O[C@H](COP(=O)(O)OP(=O)(O)C(Br)(Br)P(=O)(O)O)[C@@H](O)[C@H]1O`, the vessel count % control is 81.9% (inactive). With `N.N.O=C(O)C1(C(=O)O)CCC1.[Pt+2]`, the vessel count % control is 105% (inactive). In the case of `CCCN(CCC)[C@@H]1CCc2c(F)ccc(O)c2C1` it was 78.7% (inactive); in that of `C[N+]1(C)CCC(OC(=O)C(c2ccccc2)c2ccccc2)CC1`, 91.5% (inactive). In the case of `NC(=O)c1cc(N2CC2)c([N+](=O)[O-])cc1[N+](=O)[O-]` it was 107% (inactive); in that of `CCOC(=O)c1cnc2c(cnn2CC)c1NN=C(C)C`, 108% (inactive).

`O=C(CCCN1CCC(O)(c2ccc(Cl)cc2)CC1)c1ccc(F)cc1`: the vessel count % control was 77.9% (inactive). In the case of `O=C1CCC(c2ccc(-n3ccnc3)cc2)=NN1` it was 86% (inactive).

Turning to `CCN(Cc1ccncc1)C(=O)C(CO)c1ccccc1` (stereo unspecified), the vessel count % control is 114% (inactive). In the case of `NC(N)=Nc1nc(CSCC/C(N)=N/S(N)(=O)=O)cs1`, the vessel count % control is 113% (inactive). Regarding `CCCN(CCC)CCc1cccc2c1CC(=O)N2`, the vessel count % control was 96.5% (inactive). On to `COc1ccc(-c2ccc(N)[n+](CCCC(=O)O)n2)cc1`, for which the vessel count % control is 105% (inactive). In the case of `N#C/C(=C\c1ccc(O)c(O)c1)C(=O)NCc1ccccc1` it was 95.6% (inactive); in that of `C(=C\c1ccccc1)/CN1CCN(C(c2ccccc2)c2ccccc2)CC1`, 88.9% (inactive). For `CN1CCN(c2nc3cc(C(F)(F)F)ccc3n3cccc23)CC1` the value was 100% (inactive); for `C[C@]12CCC(=O)C=C1CC[C@@H]1[C@@H]2[C@@H](O)C[C@@]2(C)[C@H]1CC[C@]2(O)C(=O)CO`, 102% (inactive).

In the case of `CNCCC(Oc1ccc(C(F)(F)F)cc1)c1ccccc1` (stereo unspecified), the vessel count % control is 74.2% (inactive). In the case of `CC(=O)N[C@H](C(=O)O)C(C)(C)SN=O` it was 94.3% (inactive); in that of `Oc1cc2c(cc1O)CN(C(=S)NCCc1ccc(Cl)cc1)CCC2`, 93.3% (inactive). For `Cn1c(=O)c2[nH]c(-c3ccc(S(=O)(=O)O)cc3)nc2n(C)c1=O` the value was 106% (inactive). Take `CN1CCN(C(=O)OC2c3nccnc3C(=O)N2c2ccc(Cl)cn2)CC1` (stereo unspecified): the vessel count % control is 105% (inactive). For `CCn1cc(C(=O)O)c(=O)c2cc3c(cc21)OCO3` the value was 121% (inactive). For `O=C1Nc2ccc(I)cc2/C1=C/c1cc(Br)c(O)c(Br)c1`, the vessel count % control was 69.8% (inactive). Consider `Cc1cc(N)c2ccccc2[n+]1CCCCCCCCCCCCCC[n+]1c(C)cc(N)c2ccccc21`, for which the vessel count % control is 79.9% (inactive). With `NNCc1cccc(O)c1`, the vessel count % control was 85.8% (inactive).

As for `O=C(O)C1=CCCNC1`, the vessel count % control was 114% (inactive).

Take `CC(C)[C@H](NC(=O)OCc1ccccc1)C(=O)N[C@H](C=O)Cc1ccccc1` (Cbz-Val-Phe-aldehyde): the vessel count % control is 107% (inactive). In the case of `CC(Cc1ccc(O)cc1)NCC(O)c1cc(O)cc(O)c1` (stereo unspecified) it was 114% (inactive). For `C[C@H]1C2Cc3ccc(O)cc3C1(C)CCN2CC1CC1` (stereo partly specified) the value was 70.9% (inactive). For `COc1ccc2[nH]cc(CCNC(C)=O)c2c1` the value was 76.5% (inactive).

Regarding `Cc1ccc(=O)n(-c2ccccc2)c1`, the vessel count % control is 92.7% (inactive). `O=C1C=CC(=O)C=C1`: the vessel count % control is 84.8% (inactive). For `O=Nc1ccc2oc(=O)ccc2c1` the value was 95% (inactive); for `C[C@]12CCC(=O)C=C1CC[C@@H]1[C@@H]2C(=O)C[C@@]2(C)[C@H]1CC[C@]2(O)C(=O)CO`, 126% (inactive). In the case of `O=c1ccc2c(OCCCCc3ccccc3)c3ccoc3cc2o1` it was 76.3% (inactive); in that of `OCc1ccc(-c2nn(Cc3ccccc3)c3ccccc23)o1`, 78.2% (inactive); in that of `O=c1c(O)c(-c2ccc(O)cc2O)oc2cc(O)cc(O)c12`, 108% (inactive). For `Clc1cccc(Cl)c1NC1=NCCN1` the value was 121% (inactive); for `Cc1c(C(=O)c2cccc3ccccc23)c2cccc3c2n1[C@H](CN1CCOCC1)CO3`, 0% (inactive); for `CCCN(CCC)C(=O)Cc1c(-c2ccc(Cl)cc2)nc2c(Cl)cc(Cl)cn12`, 89.9% (inactive). As for `N=C(N)c1ccccc1`, the vessel count % control is 110% (inactive).

For `NCCc1ccc(O)cc1`, the vessel count % control is 90.2% (inactive). In the case of `CC(=O)[C@@]1(O)CC[C@H]2[C@@H]3CCC4=CC(=O)CC[C@]4(C)[C@H]3CC[C@@]21C` it was 98.7% (inactive).

As to `CCCn1c(=O)c2[nH]c(C3CCCC3)nc2n(CCC)c1=O`, the vessel count % control is 78.9% (inactive). Take `CN1CC[C@@]2(C)c3cc(O)ccc3N(C)C12` (stereo partly specified): the vessel count % control is 95.1% (inactive). For `CN(C)c1ccc(/C=C2\C(=O)Nc3ccccc32)cc1` the value was 36.7%; for `Oc1cc(O)c2c(c1)O[C@H](c1ccc(O)c(O)c1)[C@@H](O)C2`, 114% (inactive). For `CNC(=O)OCC[N+](C)(C)C` the value was 96.2% (inactive); for `O=C(O)C1=CC(=C(c2ccc(O)c(C(=O)O)c2)c2ccc(O)c(C(=O)O)c2)C=CC1=O`, 109% (inactive); for `OCc1cnc[nH]1`, 106% (inactive).

For `NCCNS(=O)(=O)c1cccc2cnccc12`, the vessel count % control is 98.2% (inactive). As for `COC(=O)[C@@H]1[C@H]2C[C@H]3c4[nH]c5ccccc5c4CCN3C[C@@H]2CC[C@@H]1O`, the vessel count % control is 95.4% (inactive). For `COc1ccccc1N1CCN(CCN(C(=O)c2ccc(I)cc2)c2ccccn2)CC1` the value was 105% (inactive); for `C=C/C(C)=C/[C@@]1(C)SC(=O)C(C)=C1O`, 97.7% (inactive); for `Oc1ccc(Cn2cc[nH]c2=S)cc1`, 92.9% (inactive).

As to `O=C(O)CC1CCCc2ccccc2C1O` (stereo unspecified), the vessel count % control was 137% (inactive). On to `CC(C)N(CCC(=O)c1ccc2ccccc2c1)Cc1ccccc1`, for which the vessel count % control is 0% (inactive).

With `CCCN(CCc1ccccc1)C1CCc2c(O)cccc2C1` (stereo unspecified), the vessel count % control is 88.9% (inactive).

As for `Clc1cnc(Oc2ccc(Oc3ncc(Cl)cc3Cl)cc2)c(Cl)c1`, the vessel count % control is 96.7% (inactive). For `CCN(CC)CCNC(=O)c1cc(S(C)(=O)=O)ccc1OC` the value was 68.7% (inactive). In the case of `CCCN(CCC)C(=O)C(CCC(=O)O)NC(=O)c1ccccc1` (stereo unspecified) it was 103% (inactive); in that of `Cc1ccc(/C(=C\CN2CCCC2)c2ccccn2)cc1`, 80% (inactive); in that of `O=Nc1c(-c2c(O)[nH]c3ccc(Cl)cc23)[nH]c2ccccc12`, 88.2% (inactive). For the compound `COc1ccccc1N1CCNCC1`, the vessel count % control was 96.7% (inactive). For the compound `CNCC(O)c1ccc(O)cc1` (stereo unspecified), the vessel count % control was 131% (inactive). On to `O=S(=O)(O)C1CCNCC1`, for which the vessel count % control was 89.3% (inactive). In the case of `CNc1cc(NS(=O)(=O)c2ccc(N)cc2)nc(NC)n1` it was 81.3% (inactive).

Take `CN1CCN(CCCN2c3ccccc3Sc3ccc(Cl)cc32)CC1`: the vessel count % control is 68.9% (inactive). For `N#C/C(=C\c1c[nH]c2ccccc12)C(=O)c1ccc(O)c(O)c1` the value was 102% (inactive); for `CCCCCC[C@@H]([C@@H](C)O)n1cnc2c(N)ncnc21`, 85.8% (inactive).

With `N[C@@H]1CONC1=O`, the vessel count % control is 90.5% (inactive).
